Series [1] can be described thus: Phase 1 dose escalation: toxicity. It is filed as in vivo, human.
Series [2] in a line: Veliparib plasma pharmacokinetics. The conditions noted are these: for half-life: human, plasma, oral. It is filed as in vivo, human.
The subject of series [3] is Ser139-phospho-H2AX (γH2AX). As to the kind of experiment: H2AX phosphorylation in viable peripheral blood cells and CD34+ subset. In kind it is in vivo, human.
In series [4] the test system is AML. Particulars: cited from earlier work; for Response rate: temozolomide 200 mg/m^2/day x 7 days, adults ≥ 60 years.
The nature of series [5]: Temozolomide plasma pharmacokinetics. In kind it is in vivo, human.
Setting [6] is: veliparib 200 mg, administered alone.
[7] abbreviates: single dose of veliparib, 6 hours, relative to pretreatment, DL5/DL6.
[8] abbreviates: temozolomide 200 mg/m^2/day alone (day 3), veliparib dose 20–200 mg.

Several values for one entry are separate records, joined by “and”; a condition that tells them apart may be missing. Equal values may be shown once. Read-outs that look alike come from different tables or passages of the source.

The text below walks through data of paper PMC5290001 (Clinical cancer research : an official journal of the …, 2016).

As a reminder, the half-life is the time needed for the level to fall by half in the phase considered. Usually Cmax stands for the maximum level reached in the sampled fluid or tissue. Usually Tmax stands for the time from dosing to the highest level.

On to `C[C@]1(c2nc3c(C(N)=O)cccc3[nH]2)CCCN1` [Veliparib, veliparib], for which, in series [1] (given with temozolomide 200 mg/m^2 daily for 7 days, veliparib for 9 days), the “Maximum tolerated dose (MTD) / RP2D of veliparib” value came out at 150 mg twice daily. The half-life was 9.1 ± 8 h in series [2] (t1/2, veliparib 120 mg in combination with temozolomide 200 mg/m^2/day (day 8)); 5.3 ± 1.7 h in series [2] (t1/2, veliparib 150 mg in combination with temozolomide 200 mg/m^2/day (day 8)); 3.6 ± 2.8 h in series [2] (t1/2, veliparib 200 mg in combination with temozolomide 200 mg/m^2/day (day 8)). Also, the V/F is 285 ± 175 L in series [2] (veliparib 20 mg alone (day 1), temozolomide dose 150 or 200 mg/m^2/day); 180±49 (3) L in series [2] (veliparib 20 mg in combination with temozolomide 150 or 200 mg/m^2/day (day 8)); 181±50 (10) L in series [2] (veliparib 120 mg alone (day 1), temozolomide dose 200 mg/m^2/day); 191±165 (8) L in series [2] (veliparib 120 mg in combination with temozolomide 200 mg/m^2/day (day 8)); 190±72 (16) L in series [2] (veliparib 150 mg alone (day 1), temozolomide dose 200 mg/m^2/day); 109±45 (10) L in series [2] (veliparib 150 mg in combination with temozolomide 200 mg/m^2/day (day 8)). In addition, the V/F in series [2] (veliparib 200 mg alone (day 1), temozolomide dose 200 mg/m^2/day) was 84±26 (4) L; in series [2] (veliparib 200 mg in combination with temozolomide 200 mg/m^2/day (day 8)), 77±59 (3) L. For the same molecule, in series [2] (setting [6]), the “Increase in AUC at the highest administered dose” value worked out at 1.4 fold. Also, the “Increase in Cmax at the highest administered dose” value in series [2] (setting [6]) came out at 2.5 fold. Also, the “Increase in phospho-H2AX positive CD34+ cells” value in series [3] (1 patient with HI, day 1) is 2.3 fold; in series [3] (two patients who achieved CR, day 1, 6 hours post- versus pre-treatment), 2.3 fold and 1.3 fold. For the same molecule, the “Patients with increased H2AX phosphorylation in CD34+ subset” value in series [3] (setting [7]) was 8 of 12. The “Patients with increased H2AX phosphorylation in PB cells” value in series [3] (setting [7]) is listed as 4 of 12. Also, the “Increase in H2AX phosphorylation in PB cells” value in series [3] (two patients who achieved CR) was not below 2 fold.

In the case of `Cn1nnc2c(C(N)=O)ncn2c1=O` [Temozolomide, temozolomide], the “Temozolomide dose at the MTD / RP2D” value in series [1] (for 7 days, with veliparib 150 mg twice a day) was 200 mg/m^2/day. Also, the Overall response rate in series [4] (MGMT+ cases) was 6%; in series [4] (MGMT− AMLs), 60%. Besides, in series [4] (newly diagnosed AML or high-risk MDS with low MGMT expression), the “Patients achieving a response” value was 53%. Further, the Response rate was 22% in series [4] (newly diagnosed AML) and 5% in series [4] (relapsed/refractory AML). Besides, in series [5] (human, plasma, oral, Cmax, temozolomide 200 mg/m^2/day in combination with veliparib 20–200 mg (day 8)), the Cmax amounted to 12000 ± 3800 ng/mL. For the same molecule, the half-life in series [5] (human, plasma, oral, t1/2, temozolomide 200 mg/m^2/day in combination with veliparib 20–200 mg (day 8)) was 1.9 ± 0.4 h. Also, the Tmax in series [5] (human, plasma, oral, tmax (median), temozolomide 200 mg/m^2/day in combination with veliparib 20–200 mg (day 8)) amounted to 1 h. In addition, the “Cl/F, Obs.” value in series [5] (setting [8]) was 9.2 ± 3.2 L/h. Also, in series [5] (setting [8]), the “V/F, Obs.” value is 25 ± 9.1 L. In series [5] (temozolomide 200 mg/m^2/day in combination with veliparib 20–200 mg (day 8)), the V/F is listed as 28±10 (25) L.
